Reference: US10532082B2, “SOCS1-derived peptide for use in chronic complications of diabetes” (Fundació Hospital Universitari Vall d'Hebron-Institut de …, priority 2014, dated 2020)
Where no end group is shown, it is not given here.

What was measured:
STAT3 = STAT3 activation in cytokine-stimulated macrophages (Western blot); format: cell-based, murine; conditions: pre-incubation 50-150 ug/mL (Mut 150 ug/mL), IFNγ and IL-6 stimulation
Experimental: (§1) RAW264.7 macrophages and vascular smooth muscle cells (VSMC) cultured in a medium with 10% fetal bovine serum were used. The cells were synchronized (24 hours without serum), pre-incubated for 90 minutes with different peptide concentrations (miS1 or the control thereof, 50-150 μg/mL) and stimulated with cytokines (IFNγ […]). STAT activation was analyzed by means of Western blot for phosphorylated STAT1/STAT3 isoforms. JAK/STAT pathway-dependent chemokine (CCL2) expression was determined by means of ELISA. Cell viability was analyzed by MTT colorimetric assay and macrophage migration was analyzed by chemotaxis assay.

STAT1 = STAT1 activation in cytokine-stimulated macrophages (Western blot); format: cell-based, murine; conditions: pre-incubation 50-150 ug/mL (Mut 150 ug/mL), IFNγ and IL-6 stimulation
Experimental: as §1

Mut: non-functional mutated peptide, F substituted with A: SEQ ID NO 3 DTHARTARSHSDYRRI, bound to lysine-palmitate; control of the experiments (not fully specified (N-terminus)) [reference compound]
STAT3 activation (phosphorylation) (STAT3): did not cause any effect | STAT1 activation (phosphorylation) (STAT1): did not cause any effect
